Toxic doses and inconclusive results are not listed.

The values below come from PubChem BioAssay AID256 (DTP/NCI, 2004).

For the assay, the system named is CD2F1 mice, L1210 leukemia ip, survival T/C. As to the kind of experiment: NCI In Vivo Anticancer Drug Screen. Data for tumor model L1210 Leukemia (intraperitoneal) in CD2F1 (CDF1) mice. Particulars: higher = longer survival. The essentials:
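Read-out first: treated-group measurement over vehicle-control measurement, expressed as a ratio. Animals bore a transplanted tumor line and were dosed with compound or vehicle.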

Setting [1] is: endpoint: mean survival time, dose: 100.0 mg/kg/injection, schedule: Q01DX009 (ip), vehicle: saline with Tween-80.
[2] abbreviates: endpoint: mean survival time, dose: 200.0 mg/kg/injection, schedule: Q01DX009 (ip), vehicle: saline with Tween-80.
[3] abbreviates: endpoint: mean survival time, dose: 100.0 mg/kg/injection, schedule: Q01DX001 (ip), vehicle: saline.
Where [4] appears, read: endpoint: mean survival time, dose: 200.0 mg/kg/injection, schedule: Q01DX001 (ip), vehicle: saline.
Where [5] appears, read: endpoint: mean survival time, dose: 400.0 mg/kg/injection, schedule: Q01DX001 (ip), vehicle: saline.
Setting [6] is: endpoint: mean survival time, dose: 100.0 mg/kg/injection, schedule: Q04DX003 (ip), vehicle: saline.
Setting [7] is: endpoint: mean survival time, dose: 200.0 mg/kg/injection, schedule: Q04DX003 (ip), vehicle: saline.
Where [8] appears, read: endpoint: mean survival time, dose: 400.0 mg/kg/injection, schedule: Q04DX003 (ip), vehicle: saline.
Where [9] appears, read: endpoint: mean survival time, dose: 50.0 mg/kg/injection, schedule: Q01DX009 (ip), vehicle: saline with Tween-80.

Consider `O=C(CCCCC(=O)Nc1ccc(C2=NCCN2)cc1)Nc1ccc(C2=NCCN2)cc1`, for which the T/C was 168 % of control (endpoint: mean survival time, dose: 75.0 mg/kg/injection, schedule: Q01DX009 (ip), vehicle: saline); 216 % of control (endpoint: mean survival time, dose: 150.0 mg/kg/injection, schedule: Q01DX009 (ip), vehicle: saline); 236 % of control (endpoint: mean survival time, dose: 300.0 mg/kg/injection, schedule: Q01DX009 (ip), vehicle: saline).

Turning to `COC(=O)C1(C)CCCC2(C)C1CCC13OC1C(C(C)C)=CCC23` (stereo unspecified), the T/C under setting [1] was 104 % of control; the T/C under setting [2] was 97 % of control; the T/C (endpoint: mean survival time, dose: 400.0 mg/kg/injection, schedule: Q01DX009 (ip), vehicle: saline with Tween-80) was 101 % of control.

For `CC(C)N1CCC1C(=O)O` (stereo unspecified), the T/C was 97 % of control (endpoint: mean survival time, dose: 100.0 mg/kg/injection, schedule: Q01DX009 (ip), vehicle: saline sonified); 105 % of control (endpoint: mean survival time, dose: 200.0 mg/kg/injection, schedule: Q01DX009 (ip), vehicle: saline sonified); 97 % of control (endpoint: mean survival time, dose: 400.0 mg/kg/injection, schedule: Q01DX009 (ip), vehicle: saline sonified).

Regarding `CCOC(=O)C(C(=O)OC)C(=O)OCC`, the T/C is 95 % of control under setting [3], 103 % of control under setting [4] and 103 % of control under setting [5].

With `CCOC(=O)C(S(C)(=O)=O)S(C)(=O)=O`, the T/C (endpoint: mean survival time, dose: 75.0 mg/kg/injection, schedule: Q01DX001 (ip), vehicle: saline with Tween-80) is 97 % of control; the T/C (endpoint: mean survival time, dose: 150.0 mg/kg/injection, schedule: Q01DX001 (ip), vehicle: saline with Tween-80) was 108 % of control; the T/C (endpoint: mean survival time, dose: 300.0 mg/kg/injection, schedule: Q01DX001 (ip), vehicle: saline with Tween-80) was 98 % of control.

As for `Nc1nc(N)c2c(n1)NCN(CCc1ccc(Cl)cc1Cl)C2`, the T/C was 100 % of control (endpoint: mean survival time, dose: 0.75 mg/kg/injection, schedule: Q01DX009 (ip), vehicle: distilled water + Tween-80); 102 % of control (endpoint: mean survival time, dose: 1.5 mg/kg/injection, schedule: Q01DX009 (ip), vehicle: distilled water + Tween-80); 100 % of control (endpoint: mean survival time, dose: 3.0 mg/kg/injection, schedule: Q01DX009 (ip), vehicle: distilled water + Tween-80); 102 % of control (endpoint: mean survival time, dose: 6.0 mg/kg/injection, schedule: Q01DX009 (ip), vehicle: distilled water + Tween-80); 96 % of control (endpoint: mean survival time, dose: 12.0 mg/kg/injection, schedule: Q01DX009 (ip), vehicle: distilled water + Tween-80); 98 % of control (endpoint: mean survival time, dose: 24.0 mg/kg/injection, schedule: Q01DX009 (ip), vehicle: distilled water + Tween-80). Further, the T/C reads like this: (endpoint: mean survival time, dose: 37.5 mg/kg/injection, schedule: Q01DX009 (ip), vehicle: distilled water + Tween-80) 96 % of control; (endpoint: mean survival time, dose: 75.0 mg/kg/injection, schedule: Q01DX009 (ip), vehicle: distilled water + Tween-80) 94 % of control.

For `CC1=C2CC3CCC(C)C2(CC1)C3(C)C` (stereo unspecified), the T/C is 111 % of control (endpoint: mean survival time, dose: 100.0 mg/kg/injection, schedule: Q04DX002 (ip), vehicle: Klucel (hydroxypropylcellulose) (HPC)); 96 % of control under setting [6]; 96 % of control (endpoint: mean survival time, dose: 200.0 mg/kg/injection, schedule: Q04DX002 (ip), vehicle: Klucel (hydroxypropylcellulose) (HPC)); 98 % of control under setting [7]; 96 % of control (endpoint: mean survival time, dose: 400.0 mg/kg/injection, schedule: Q04DX002 (ip), vehicle: Klucel (hydroxypropylcellulose) (HPC)); 106 % of control under setting [8].

Regarding `Cc1cccc[n+]1C`, the T/C (endpoint: mean survival time, dose: 12.5 mg/kg/injection, schedule: Q04DX003 (ip), vehicle: saline) was 102 % of control; the T/C (endpoint: mean survival time, dose: 25.0 mg/kg/injection, schedule: Q04DX003 (ip), vehicle: saline) is 104 % of control; the T/C (endpoint: mean survival time, dose: 50.0 mg/kg/injection, schedule: Q04DX003 (ip), vehicle: saline) is 100 % of control.

Regarding `O=C1CCCC/C1=N\Nc1ccccc1`, the T/C reads like this: under setting [3], 91 % of control; under setting [4], 89 % of control; under setting [5], 97 % of control.

On to `CSc1nc(NC2OC(CO)C(O)C(O)C2O)c(Br)c(=O)n1C` (stereo unspecified), for which the T/C (endpoint: median survival time, dose: 12.5 mg/kg/injection, schedule: Q01DX005 (ip), vehicle: saline with Tween-80) was 98 % of control; the T/C (endpoint: median survival time, dose: 25.0 mg/kg/injection, schedule: Q01DX005 (ip), vehicle: saline with Tween-80) was 100 % of control; the T/C (endpoint: median survival time, dose: 50.0 mg/kg/injection, schedule: Q01DX005 (ip), vehicle: saline with Tween-80) was 96 % of control; the T/C (endpoint: median survival time, dose: 100.0 mg/kg/injection, schedule: Q01DX005 (ip), vehicle: saline with Tween-80) was 101 % of control.

Take `CCOc1ccccc1NC(=O)NC1C(OC(C)=O)OC(COC(C)=O)C(OC(C)=O)C1OC(C)=O` (stereo unspecified): the T/C by setting is: (endpoint: mean survival time, dose: 12.5 mg/kg/injection, schedule: Q01DX009 (ip), vehicle: other) 94 % of control; (endpoint: mean survival time, dose: 25.0 mg/kg/injection, schedule: Q01DX009 (ip), vehicle: other) 100 % of control; (endpoint: mean survival time, dose: 50.0 mg/kg/injection, schedule: Q01DX009 (ip), vehicle: other) 94 % of control; (endpoint: mean survival time, dose: 100.0 mg/kg/injection, schedule: Q01DX009 (ip), vehicle: other) 96 % of control; (endpoint: mean survival time, dose: 200.0 mg/kg/injection, schedule: Q01DX009 (ip), vehicle: other) 90 % of control.

With `O=c1c2ncn(C3OC(CO)C(O)C3O)c2nc[n]1[Hg][c]1ccccc1` (stereo unspecified), the T/C runs as follows: (endpoint: median survival time, dose: 0.79 mg/kg/injection, schedule: Q01DX005 (ip), vehicle: saline) 103 % of control; (endpoint: median survival time, dose: 1.56 mg/kg/injection, schedule: Q01DX005 (ip), vehicle: saline) 111 % of control; (endpoint: median survival time, dose: 3.12 mg/kg/injection, schedule: Q01DX005 (ip), vehicle: saline) 115 % of control; (endpoint: median survival time, dose: 6.25 mg/kg/injection, schedule: Q01DX005 (ip), vehicle: saline) 105 % of control; (endpoint: median survival time, dose: 12.5 mg/kg/injection, schedule: Q01DX005 (ip), vehicle: saline) 112 % of control.

Turning to `c1cc[n+](C[n+]2ccccc2)cc1`, the T/C under setting [3] is 101 % of control; the T/C under setting [6] was 96 % of control; the T/C under setting [4] is 101 % of control; the T/C under setting [7] is 97 % of control; the T/C under setting [5] was 101 % of control; the T/C under setting [8] is 100 % of control.

For `OC(c1ccccc1)(c1ccccc1)c1ccncc1`, the T/C is 91 % of control (endpoint: mean survival time, dose: 12.5 mg/kg/injection, schedule: Q01DX009 (ip), vehicle: saline with Tween-80); 87 % of control (endpoint: mean survival time, dose: 25.0 mg/kg/injection, schedule: Q01DX009 (ip), vehicle: saline with Tween-80); 91 % of control under setting [9].

For the molecule `CSc1ccccc1C1=CCCCCC1`, the T/C runs as follows: under setting [9], 103 % of control; (endpoint: mean survival time, dose: 100.0 mg/kg/injection, schedule: Q01DX001 (ip), vehicle: saline with Tween-80) 96 % of control; under setting [1], 93 % of control; (endpoint: mean survival time, dose: 200.0 mg/kg/injection, schedule: Q01DX001 (ip), vehicle: saline with Tween-80) 94 % of control; under setting [2], 94 % of control.

For `C1=C\CCCCCCCC/1`, the T/C is 100 % of control (endpoint: mean survival time, dose: 100.0 mg/kg/injection, schedule: Q04DX003 (ip), vehicle: saline with Tween-80) and 100 % of control (endpoint: mean survival time, dose: 400.0 mg/kg/injection, schedule: Q04DX003 (ip), vehicle: saline with Tween-80).

For the molecule `CC[N-]c1nncs1.CC[N-]c1nncs1.CC[N-]c1nncs1.CC[N-]c1nncs1.[Cl][Rh][Cl]`, the T/C runs as follows: (endpoint: mean survival time, dose: 3.13 mg/kg/injection, schedule: Q04DX003 (ip), vehicle: distilled water + Tween-80) 104 % of control; (endpoint: mean survival time, dose: 6.25 mg/kg/injection, schedule: Q04DX003 (ip), vehicle: distilled water + Tween-80) 98 % of control; (endpoint: mean survival time, dose: 12.5 mg/kg/injection, schedule: Q04DX003 (ip), vehicle: distilled water + Tween-80) 96 % of control; (endpoint: mean survival time, dose: 25.0 mg/kg/injection, schedule: Q04DX003 (ip), vehicle: distilled water + Tween-80) 90 % of control; (endpoint: mean survival time, dose: 50.0 mg/kg/injection, schedule: Q04DX003 (ip), vehicle: distilled water + Tween-80) 98 % of control.

For `Nc1nc(N)c2nc(CN(Cc3ccccc3)c3ccc(C(=O)NC(CCC(=O)O)C(=O)O)cc3)cnc2n1` (stereo unspecified), the T/C reads like this: (endpoint: mean survival time, dose: 20.0 mg/kg/injection, schedule: Q01DX009 (ip), vehicle: sodium bicarbonate) 109 % of control; (endpoint: mean survival time, dose: 40.0 mg/kg/injection, schedule: Q01DX009 (ip), vehicle: sodium bicarbonate) 114 % of control; (endpoint: mean survival time, dose: 80.0 mg/kg/injection, schedule: Q01DX009 (ip), vehicle: sodium bicarbonate) 114 % of control; (endpoint: mean survival time, dose: 100.0 mg/kg/injection, schedule: Q01DX001 (ip), vehicle: sodium bicarbonate) 94 % of control; (endpoint: mean survival time, dose: 200.0 mg/kg/injection, schedule: Q01DX001 (ip), vehicle: sodium bicarbonate) 91 % of control; (endpoint: mean survival time, dose: 400.0 mg/kg/injection, schedule: Q01DX001 (ip), vehicle: sodium bicarbonate) 91 % of control.
